The results in this text go back to ChEMBL document CHEMBL4732252, “Generating Selective Leads for Mer Kinase Inhibitors-Example of a Comprehensive Lead-Generation Strategy” (J Med Chem, 2021).

Data set [1] in a line: Intrinsic clearance in human liver microsomes. To be noted: read-out: CLH. Type of data set: ADME, Microsome. In general terms: Liver microsomes are vesicles of endoplasmic reticulum, rich in cytochrome P450 enzymes.
A short description of data set [2]: Aqueous solubility of the compound. The data set is classed as physicochemical.
The nature of data set [3]: Distribution coefficient, logD of compound at pH 7.4. Type of data set: physicochemical. To be noted: octanol/water.
Data set [4] has as its target T1, Receptor-type tyrosine-protein kinase FLT3 (Homo sapiens, UniProt P36888).
T1 sequence (P36888 whole entry): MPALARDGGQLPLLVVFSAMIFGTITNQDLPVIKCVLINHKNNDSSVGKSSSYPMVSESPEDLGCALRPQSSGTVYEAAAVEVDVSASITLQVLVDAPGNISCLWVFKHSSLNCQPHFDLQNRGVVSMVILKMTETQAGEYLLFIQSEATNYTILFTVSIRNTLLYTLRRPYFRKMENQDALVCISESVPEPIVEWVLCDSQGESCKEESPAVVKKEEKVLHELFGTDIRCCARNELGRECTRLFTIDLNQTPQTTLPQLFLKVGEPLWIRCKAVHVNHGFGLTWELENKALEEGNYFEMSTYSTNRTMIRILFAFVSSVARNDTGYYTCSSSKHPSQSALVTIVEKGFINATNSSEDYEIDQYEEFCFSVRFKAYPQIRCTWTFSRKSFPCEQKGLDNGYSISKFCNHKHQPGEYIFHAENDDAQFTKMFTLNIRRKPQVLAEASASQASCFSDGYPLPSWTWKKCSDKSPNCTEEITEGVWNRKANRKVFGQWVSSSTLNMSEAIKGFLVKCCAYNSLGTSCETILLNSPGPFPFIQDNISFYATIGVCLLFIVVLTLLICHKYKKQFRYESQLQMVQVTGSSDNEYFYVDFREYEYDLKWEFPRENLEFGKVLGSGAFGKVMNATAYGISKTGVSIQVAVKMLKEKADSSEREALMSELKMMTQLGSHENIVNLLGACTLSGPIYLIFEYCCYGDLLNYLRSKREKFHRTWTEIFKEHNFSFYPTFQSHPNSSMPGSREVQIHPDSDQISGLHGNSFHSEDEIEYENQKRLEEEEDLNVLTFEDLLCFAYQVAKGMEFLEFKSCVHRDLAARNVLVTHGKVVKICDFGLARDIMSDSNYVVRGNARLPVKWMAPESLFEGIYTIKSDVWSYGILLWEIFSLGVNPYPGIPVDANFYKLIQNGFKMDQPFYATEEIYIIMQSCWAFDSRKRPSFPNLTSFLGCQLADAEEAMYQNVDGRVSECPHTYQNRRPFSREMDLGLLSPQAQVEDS
In words: Inhibition of His6/TEV fused-GST-tagged Flt3 (unknown origin) (H564 to S993 residues) using Axltide (CKKSRGDYMTMQJ-acid) peptide as substrate preincubated for 30 mins followed by substrate and ATP addition at Km concentration measured after 75 mins by RapidFire LC-MS analysis.

Data set [5] addresses T2, Tyrosine-protein kinase receptor UFO (Homo sapiens, UniProt P30530).
T2 sequence (P30530 whole entry): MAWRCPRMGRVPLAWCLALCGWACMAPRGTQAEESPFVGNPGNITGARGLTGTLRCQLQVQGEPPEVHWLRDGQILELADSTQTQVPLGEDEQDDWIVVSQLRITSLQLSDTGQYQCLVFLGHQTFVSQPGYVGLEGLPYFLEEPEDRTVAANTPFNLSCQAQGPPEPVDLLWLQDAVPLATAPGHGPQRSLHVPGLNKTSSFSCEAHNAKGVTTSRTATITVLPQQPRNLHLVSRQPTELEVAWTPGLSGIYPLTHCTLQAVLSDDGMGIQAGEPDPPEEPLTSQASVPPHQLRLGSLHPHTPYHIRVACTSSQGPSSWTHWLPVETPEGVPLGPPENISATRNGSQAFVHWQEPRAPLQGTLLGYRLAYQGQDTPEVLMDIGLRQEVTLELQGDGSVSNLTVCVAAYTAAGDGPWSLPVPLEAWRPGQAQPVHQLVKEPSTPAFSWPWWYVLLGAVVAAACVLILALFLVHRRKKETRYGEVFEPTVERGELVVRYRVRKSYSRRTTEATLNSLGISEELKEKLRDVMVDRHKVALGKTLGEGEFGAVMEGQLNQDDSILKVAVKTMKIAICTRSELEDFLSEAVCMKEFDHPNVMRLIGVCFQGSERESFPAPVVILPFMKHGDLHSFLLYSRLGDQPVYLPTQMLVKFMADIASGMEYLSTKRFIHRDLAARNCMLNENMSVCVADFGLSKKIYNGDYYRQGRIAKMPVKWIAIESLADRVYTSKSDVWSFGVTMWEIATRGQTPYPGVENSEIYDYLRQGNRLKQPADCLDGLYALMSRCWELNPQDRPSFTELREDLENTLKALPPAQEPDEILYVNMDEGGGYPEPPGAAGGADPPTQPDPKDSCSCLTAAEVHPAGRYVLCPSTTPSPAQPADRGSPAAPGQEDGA
Briefly: Inhibition of GST-tagged AXL (unknown origin) ([…] residues) using Axltide (CKKSRGDYMTMQJG-acid) peptide as substrate preincubated for 30 mins followed by substrate and ATP addition at Km concentration measured after 180 mins by RapidFire LC-MS analysis.

In data set [6] the target is T3, Tyrosine-protein kinase Mer (Homo sapiens, UniProt Q12866).
T3 sequence (Q12866 whole entry): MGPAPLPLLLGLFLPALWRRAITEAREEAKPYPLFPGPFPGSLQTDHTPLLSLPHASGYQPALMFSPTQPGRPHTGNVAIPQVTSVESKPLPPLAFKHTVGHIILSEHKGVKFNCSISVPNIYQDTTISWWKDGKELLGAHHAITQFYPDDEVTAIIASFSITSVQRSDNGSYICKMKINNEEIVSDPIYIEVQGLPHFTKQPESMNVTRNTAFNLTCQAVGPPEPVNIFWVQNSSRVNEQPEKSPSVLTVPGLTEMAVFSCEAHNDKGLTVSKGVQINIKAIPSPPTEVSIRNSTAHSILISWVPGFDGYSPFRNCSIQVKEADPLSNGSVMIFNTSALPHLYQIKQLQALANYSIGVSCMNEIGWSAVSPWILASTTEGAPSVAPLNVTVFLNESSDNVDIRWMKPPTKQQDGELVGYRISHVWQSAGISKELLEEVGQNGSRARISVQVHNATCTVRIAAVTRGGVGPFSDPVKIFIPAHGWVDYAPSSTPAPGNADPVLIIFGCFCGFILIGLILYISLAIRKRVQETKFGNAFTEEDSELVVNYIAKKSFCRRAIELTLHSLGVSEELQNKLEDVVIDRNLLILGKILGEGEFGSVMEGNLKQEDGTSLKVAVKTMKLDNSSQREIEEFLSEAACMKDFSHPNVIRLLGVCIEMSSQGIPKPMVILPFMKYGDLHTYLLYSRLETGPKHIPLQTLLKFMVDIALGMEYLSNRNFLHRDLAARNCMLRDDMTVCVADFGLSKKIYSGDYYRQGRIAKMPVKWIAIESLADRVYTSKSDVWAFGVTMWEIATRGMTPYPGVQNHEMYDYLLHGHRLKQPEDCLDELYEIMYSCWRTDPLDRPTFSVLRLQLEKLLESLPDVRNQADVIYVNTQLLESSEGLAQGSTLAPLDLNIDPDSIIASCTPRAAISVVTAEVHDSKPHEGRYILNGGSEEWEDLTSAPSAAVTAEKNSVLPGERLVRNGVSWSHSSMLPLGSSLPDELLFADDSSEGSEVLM
Briefly: Inhibition of 6His/thrombin cleavage site-fused Avi-tagged dephosphorylated MER (unknown origin) (R528 to M999 residues) using Axltide (CKKSRGDYMTMQJG-acid) peptide as substrate preincubated for 30 mins followed by substrate and ATP addition at Km concentration measured after 120 mins by RapidFire LC-MS analysis.

The nature of data set [7]: Intrinsic clearance in rat hepatocytes assessed per 10^6 cells. The settings on record: read-out: CLH. Type of data set: ADME, cell-based, Hepatocyte.
Data set [8] has as its target T2, Tyrosine-protein kinase receptor UFO. In words: Inhibition of GST-tagged AXL (unknown origin) ([…] residues) using Axltide (CKKSRGDYMTMQJG-acid) peptide as substrate preincubated for 30 mins followed by substrate and ATP addition at Km concentration measured after 40 mins by ADP-Glo Reagent based method. On the technique in general: ADP-Glo turns the ADP formed in a reaction into a luminescent signal.

The target of data set [9] is T1, Receptor-type tyrosine-protein kinase FLT3. In words: Inhibition of His6/TEV fused-GST-tagged Flt3 (unknown origin) (H564 to S993 residues) using Axltide (CKKSRGDYMTMQJ-acid) peptide as substrate preincubated for 30 mins followed by substrate addition in presence of ATP and measured for 90 mins by ADP-Glo Reagent based method.

≈ marks a conversion by molar mass, not a printed value.

`COc1cc2c(Nc3cnc(OCCCC4CCCC4)nc3)ncnc2cc1OCCCN1CCCCC1`: in data set [1], the microsomal CLint is 96 µL/min/mg. In data set [2], the concentration in solution (solubility) was 130 µM (≈ 67.7 µg/mL). For the same molecule, in data set [3], the logD (in general, the decadic logarithm of the distribution of all forms, ionised or not, between an organic phase and buffer at a given pH) was 4.5. In addition, the IC50 (usually the point on the concentration scale where inhibition reaches its midpoint) in [4] is 20 nM; in data set [5], 10 nM; in data set [6], 0.794 nM. Further, in [7], the hepatocyte CLint stood at 2 µL/min/1e6 cells.
Turning to `CNc1nc(OC2CCCC2)nc2c1ncn2Cc1c(F)cccc1F`, in data set [1], the microsomal CLint turned out to be 240 µL/min/mg. Besides, the solubility (usually how much of the substance goes into solution per volume) in data set [2] was 9 µM (≈ 3.23 µg/mL). In addition, the pH-dependent lipophilicity (logD) in data set [3] stood at 4.3. The IC50 is 794 nM in data set [8], 100000 nM in [9] and 126 nM in data set [6]. In data set [7], the hepatocyte CLint was determined as 190 µL/min/1e6 cells.
For `CS(=O)(=O)c1cnc(Nc2ccc(O)cc2)nc1NCc1ccccc1`, the microsomal CLint in data set [1] was 5 µL/min/mg. Besides, the solubility in [2] is 27 µM (≈ 10 µg/mL). The log distribution coefficient (logD) in data set [3] is 2.8. Moreover, the IC50 was 1260 nM in [4], 1580 nM in data set [5] and 398 nM in data set [6]. Also, in [7], the hepatocyte CLint was found to be 32 µL/min/1e6 cells.
Regarding `O=C(Nc1ccc(Oc2cc(NC(=O)C3CC3)ncn2)cc1)Nc1ccc(CN2CCn3ccnc3C2)c(C(F)(F)F)c1`, in data set [1], the microsomal CLint is 16 µL/min/mg. This molecule also had a solubility in data set [2] of 3 µM (≈ 1.78 µg/mL). For the same molecule, the logD in data set [3] was 4.5. Besides, the IC50 in data set [4] is 3.16 nM; in [5] it was 398 nM; in data set [6], 6.31 nM. In addition, the hepatocyte CLint in data set [7] is 9 µL/min/1e6 cells.
On to `COc1cc2c(Nc3cnc(NC(=O)c4cccn4C)nc3)ncnc2cc1OCCCNC1CCCC1`, for which the microsomal CLint in data set [1] was less than 3 µL/min/mg. This molecule also returned a solubility in [2] of 1000 µM (≈ 517 µg/mL). The molecule further returned a logD in [3] of 1.8. The IC50 is 126 nM in [8], 10000 nM in data set [9] and 100 nM in data set [6]. In addition, in data set [7], the hepatocyte CLint was less than 1 µL/min/1e6 cells.
In the case of `CNC(=O)c1cnc(Nc2ccc(OC)cc2C)nc1NC1CCCC1`, the microsomal CLint in data set [1] was found to be 37 µL/min/mg. Besides, the concentration in solution in [2] (solubility) was 10 µM (≈ 3.55 µg/mL). The logD in data set [3] came out at 4.2. Also, the IC50 was 31600 nM in data set [8], greater than 79400 nM in data set [9] and 794 nM in data set [6]. For the same molecule, in data set [7], the hepatocyte CLint came out at 130 µL/min/1e6 cells.
